In PubChem BioAssay AID248 (DTP/NCI, 2004):
“And” between values parts separate entries of the source, which are not always exact repeats. Equal entries are not always repeated. Toxic doses and inconclusive results are not listed. Numbered stars: 1 amine (or outer) side, 2 acyl side, 3 side chain; on linkers, the order of the positions; unused ones are H or OH. Bridge positions count the residues as written; N and C are the ends. Square brackets hold non-standard residues; d marks the D form. Peptide text beside a SMILES is read from it. I, II: the chains in the order shown. ξ: configuration not given here. Actinocin(9to1) = Cc1c2oc3c(C)ccc(C(=O)[*:1])c3nc-2c(C(=O)[*:2])c(N)c1=O; NMeV = CN[CH](C(=O)O)C(C)C; ξI = CCC(C)C(N)C(=O)O; Sar = CNCC(=O)O

Tested on: L1210 leukemia ip in BDF1 mice, survival T/C
Test: NCI In Vivo Anticancer Drug Screen. Data for tumor model L1210 Leukemia (intraperitoneal) in B6D2F1 (BDF1) mice
Details: endpoint: mean survival time, higher = longer survival
In short: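 Tumor cells were implanted, animals were treated, and survival was followed. The result divides the treated measurement by the vehicle-control measurement.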

[1] = dose: 100.0 mg/kg/injection, schedule: Q04DX003 (ip), vehicle: saline
[2] = dose: 200.0 mg/kg/injection, schedule: Q04DX003 (ip), vehicle: saline
[3] = dose: 400.0 mg/kg/injection, schedule: Q04DX003 (ip), vehicle: saline
[4] = dose: 100.0 mg/kg/injection, schedule: Q01DX009 (ip), vehicle: Klucel (hydroxypropylcellulose) (HPC)
[5] = dose: 200.0 mg/kg/injection, schedule: Q01DX009 (ip), vehicle: Klucel (hydroxypropylcellulose) (HPC)
[6] = dose: 400.0 mg/kg/injection, schedule: Q01DX009 (ip), vehicle: Klucel (hydroxypropylcellulose) (HPC)
[7] = dose: 100.0 mg/kg/injection, schedule: Q04DX002 (ip), vehicle: Klucel (hydroxypropylcellulose) (HPC)
[8] = dose: 200.0 mg/kg/injection, schedule: Q04DX002 (ip), vehicle: Klucel (hydroxypropylcellulose) (HPC)
[9] = dose: 400.0 mg/kg/injection, schedule: Q04DX002 (ip), vehicle: Klucel (hydroxypropylcellulose) (HPC)

Compound: CC(=O)OCC1OC(n2cc(C(F)(F)F)c(=O)[nH]c2=O)CC1OC(C)=O (centres undefined)
- T/C (dose: 20.0 mg/kg/injection, schedule: Q01DX009 (oral), vehicle: saline): 116 % of control
- T/C (dose: 20.0 mg/kg/injection, schedule: Q01DX011 (ip), vehicle: saline): 116 % of control
- T/C (dose: 40.0 mg/kg/injection, schedule: Q01DX009 (oral), vehicle: saline): 116 % of control
- T/C (dose: 40.0 mg/kg/injection, schedule: Q01DX011 (ip), vehicle: saline): 118 % of control
- T/C (dose: 45.0 mg/kg/injection, schedule: Q01DX Z (oral), vehicle: saline): 105 % of control
- T/C (dose: 65.0 mg/kg/injection, schedule: Q01DX Z (oral), vehicle: saline): 87 % of control
- T/C (dose: 80.0 mg/kg/injection, schedule: Q01DX009 (oral), vehicle: saline): 118 % of control
- T/C (dose: 80.0 mg/kg/injection, schedule: Q01DX011 (ip), vehicle: saline): 122 % of control
- T/C (dose: 100.0 mg/kg/injection, schedule: Q01DX Z (oral), vehicle: saline): 109 % of control
- T/C (dose: 150.0 mg/kg/injection, schedule: Q01DX011 (oral), vehicle: saline): 168 % of control
- T/C (dose: 160.0 mg/kg/injection, schedule: Q01DX009 (oral), vehicle: saline): 155 % of control
- T/C (dose: 160.0 mg/kg/injection, schedule: Q01DX011 (ip), vehicle: saline): 159 % of control
- T/C (dose: 300.0 mg/kg/injection, schedule: Q01DX011 (oral), vehicle: saline): 153 % of control
- T/C (dose: 480.0 mg/kg/injection, schedule: Q01DX Z (ip), vehicle: saline): 115 % of control

Compound: NS(=O)(=O)c1ccc(C(=O)NO)cc1
- T/C [1]: 100 % of control
- T/C [2]: 110 % of control
- T/C [3]: 102 % of control

Compound: CC1CCCCN1C(=O)Nc1cccc(F)c1 (centres undefined)
- T/C [4]: 104 % of control
- T/C [5]: 102 % of control
- T/C [6]: 111 % of control

Compound: CC(=O)Oc1cc2c(cc1OC(C)=O)C(Br)CCCC2=O (centres undefined)
- T/C (dose: 100.0 mg/kg/injection, schedule: Q01DX009 (ip), vehicle: other): 96 % of control
- T/C (dose: 100.0 mg/kg/injection, schedule: Q04DX003 (ip), vehicle: other): 94 % of control
- T/C (dose: 200.0 mg/kg/injection, schedule: Q01DX009 (ip), vehicle: other): 93 % of control
- T/C (dose: 200.0 mg/kg/injection, schedule: Q04DX003 (ip), vehicle: other): 102 % of control
- T/C (dose: 400.0 mg/kg/injection, schedule: Q01DX009 (ip), vehicle: other): 104 % of control
- T/C (dose: 400.0 mg/kg/injection, schedule: Q04DX003 (ip), vehicle: other): 104 % of control

Compound: CC(CC(=O)NC(N)=O)(NC(N)=O)NC(N)=O
- T/C (dose: 100.0 mg/kg/injection, schedule: Q01DX001 (ip), vehicle: Klucel (hydroxypropylcellulose) (HPC)): 100 % of control
- T/C (dose: 200.0 mg/kg/injection, schedule: Q01DX001 (ip), vehicle: Klucel (hydroxypropylcellulose) (HPC)): 101 % of control
- T/C (dose: 400.0 mg/kg/injection, schedule: Q01DX001 (ip), vehicle: Klucel (hydroxypropylcellulose) (HPC)): 95 % of control

Compound: CC(C)Sc1nn2nnnc2c2ccccc12
- T/C (dose: 50.0 mg/kg/injection, schedule: Q04DX003 (ip), vehicle: saline): 94 % of control
- T/C [1]: 97 % of control
- T/C [2]: 103 % of control

Compound: N#CCCOC(=O)CCC(=O)OCCC#N
- T/C (dose: 100.0 mg/kg/injection, schedule: Q01DX001 (ip), vehicle: other): 104 % of control
- T/C (dose: 200.0 mg/kg/injection, schedule: Q01DX001 (ip), vehicle: other): 100 % of control
- T/C (dose: 400.0 mg/kg/injection, schedule: Q01DX001 (ip), vehicle: other): 102 % of control

Compound: Cc1ccc(NC(=S)Nc2ccc(C(C)C)cc2)c(C)c1
- T/C [7]: 118 % of control
- T/C [8]: 103 % of control
- T/C [9]: 100 % of control

Compound: CCC(C)C(NC(=O)CN)C(=O)O (centres undefined) (H-Gly-[ξI]-OH)
- T/C (dose: 100.0 mg/kg/injection, schedule: Q04DX002 (ip), vehicle: saline with Tween-80): 97 % of control
- T/C [1]: 98 % of control
- T/C (dose: 200.0 mg/kg/injection, schedule: Q04DX002 (ip), vehicle: saline with Tween-80): 102 % of control
- T/C [2]: 98 % of control
- T/C (dose: 400.0 mg/kg/injection, schedule: Q04DX002 (ip), vehicle: saline with Tween-80): 97 % of control
- T/C [3]: 91 % of control

Compound: CC1CCC(C(=O)O)ON1 (centres undefined)
- T/C (dose: 100.0 mg/kg/injection, schedule: Q04DX002 (ip), vehicle: saline): 114 % of control
- T/C (dose: 200.0 mg/kg/injection, schedule: Q04DX002 (ip), vehicle: saline): 95 % of control
- T/C (dose: 400.0 mg/kg/injection, schedule: Q04DX002 (ip), vehicle: saline): 100 % of control

Compound: NC(N)=N/N=C/C(=N\N=C(N)N)C(O)CO (centres undefined)
- T/C (dose: 75.0 mg/kg/injection, schedule: Q01DX001 (ip), vehicle: saline): 109 % of control and 100 % of control
- T/C (dose: 150.0 mg/kg/injection, schedule: Q01DX001 (ip), vehicle: saline): 105 % of control and 106 % of control
- T/C (dose: 300.0 mg/kg/injection, schedule: Q01DX001 (ip), vehicle: saline): 101 % of control and 105 % of control

Compound: c1ccc2c[n+](CC[n+]3ccc4ccccc4c3)ccc2c1
- T/C (dose: 75.0 mg/kg/injection, schedule: Q04DX003 (ip), vehicle: saline): 98 % of control

Compound: CC(=O)OCCSc1ccc(C)cc1
- T/C [7]: 100 % of control
- T/C [8]: 103 % of control
- T/C [9]: 100 % of control

Compound: Cc1c(Cl)c(=O)[nH]c2ccccc12
- T/C (dose: 50.0 mg/kg/injection, schedule: Q01DX009 (ip), vehicle: Klucel (hydroxypropylcellulose) (HPC)): 101 % of control
- T/C [4]: 97 % of control
- T/C [5]: 106 % of control

Compound: CC12CCCC=C1CC(C(C)(C)O)CC2 (centres undefined)
- T/C (dose: 50.0 mg/kg/injection, schedule: Q01DX009 (ip), vehicle: saline with Tween-80): 96 % of control
- T/C (dose: 100.0 mg/kg/injection, schedule: Q01DX009 (ip), vehicle: saline with Tween-80): 100 % of control
- T/C (dose: 200.0 mg/kg/injection, schedule: Q01DX009 (ip), vehicle: saline with Tween-80): 100 % of control

Compound: CCOC(=O)c1ccc(NC(=O)Nc2cc(C(F)(F)F)ccc2Cl)cc1
- T/C [4]: 100 % of control
- T/C [5]: 104 % of control
- T/C [6]: 95 % of control

Compound: C=C(Br)CNC(=O)C1CCCCC1
- T/C (dose: 3.0 mg/kg/injection, schedule: Q04DX003 (ip), vehicle: Klucel (hydroxypropylcellulose) (HPC)): 95 % of control
- T/C (dose: 6.0 mg/kg/injection, schedule: Q04DX003 (ip), vehicle: Klucel (hydroxypropylcellulose) (HPC)): 107 % of control
- T/C (dose: 6.25 mg/kg/injection, schedule: Q01DX009 (ip), vehicle: Klucel (hydroxypropylcellulose) (HPC)): 102 % of control
- T/C (dose: 12.0 mg/kg/injection, schedule: Q04DX003 (ip), vehicle: Klucel (hydroxypropylcellulose) (HPC)): 93 % of control
- T/C (dose: 12.5 mg/kg/injection, schedule: Q01DX009 (ip), vehicle: Klucel (hydroxypropylcellulose) (HPC)): 102 % of control
- T/C (dose: 25.0 mg/kg/injection, schedule: Q01DX009 (ip), vehicle: Klucel (hydroxypropylcellulose) (HPC)): 100 % of control

Compound: Cc1c2oc3c(C)ccc(C(=O)NC4C(=O)NC(C(C)C)C(=O)N5CCCC5C(=O)N(C)CC(=O)N(C)C(C(C)C)C(=O)OC4C)c3nc-2c(C(=O)NC2C(=O)NC(C(C)C)C(=O)N3CCCC3C(=O)N(C)CC(=O)N(C)C(C(C)C)C(=O)OC2C)c(N)c1=O (centres undefined) (I: TVP[Sar][NMeV] / II: TVP[Sar][NMeV]; ester I:1-I:C, II:1-II:C; linker I:N-II:N via Actinocin(9to1); configuration not given here)
- T/C (dose: 0.05 mg/kg/injection, schedule: Q01DX009 (ip), vehicle: water): 117 % of control
- T/C (dose: 0.1 mg/kg/injection, schedule: Q01DX009 (ip), vehicle: water): 106 % of control
- T/C (dose: 0.2 mg/kg/injection, schedule: Q01DX009 (ip), vehicle: water): 120 % of control
- T/C (dose: 0.3 mg/kg/injection, schedule: Q04DX003 (ip), vehicle: water): 124 % of control
- T/C (dose: 0.4 mg/kg/injection, schedule: Q01DX009 (ip), vehicle: water): 93 % of control
- T/C (dose: 1.2 mg/kg/injection, schedule: Q04DX003 (ip), vehicle: water): 110 % of control
- T/C (dose: 1.8 mg/kg/injection, schedule: Q04DX003 (ip), vehicle: water): 91 % of control

Compound: CCn1c(O)c(C=N)c(=O)[nH]c1=O
- T/C (dose: 100.0 mg/kg/injection, schedule: Q01DX009 (ip), vehicle: saline): 96 % of control
- T/C [1]: 88 % of control
- T/C (dose: 200.0 mg/kg/injection, schedule: Q01DX009 (ip), vehicle: saline): 93 % of control
- T/C [2]: 95 % of control
- T/C [3]: 90 % of control

Compound: O=[N+]([O-])c1ccc(N/N=C/c2cc(Cl)cc(Cl)c2)c([N+](=O)[O-])c1
- T/C (dose: 100.0 mg/kg/injection, schedule: Q01DX001 (ip), vehicle: saline): 100 % of control
- T/C (dose: 200.0 mg/kg/injection, schedule: Q01DX001 (ip), vehicle: saline): 105 % of control
- T/C (dose: 400.0 mg/kg/injection, schedule: Q01DX001 (ip), vehicle: saline): 96 % of control
